# Data from ChEMBL document CHEMBL1141575, “Preparation and in vitro biological evaluation of tetrapyrrole ethanolamide derivatives as potential anticancer agents” (Bioorg Med Chem Lett, 2008).
# Tests used:
# NCI-H69 [1] = assay: Survival of human H69 cells at 0.1 uM under deem light after 96 hrs by MTT assay relative to control; assay type: functional; conditions: NCI-H69, 96 h, read-out: Survival
# [2] = Survival of human MDA-MB cells at 100 uM under deem light after 96 hrs by MTT assay relative to control; assay type: functional; conditions: read-out: Survival
# [3] = Photohemolysis in human RBC assessed as concentration required to 50% hemolysis under light exposure for 5 mins; assay type: ADME, cell-based, Erythrocyte; conditions: human red blood cells, read-out: Activity
# [4] = Survival of human H209 cells at 100 uM under deem light after 96 hrs by MTT assay relative to control; assay type: functional; conditions: NCI-H209, 96 h, read-out: Survival
# NCI-H69 [5] = assay: Survival of human H69 cells at 1 uM under deem light after 96 hrs by MTT assay relative to control; assay type: functional; conditions: NCI-H69, 96 h, read-out: Survival
# [6] = Survival of human H209 cells at 1 uM under deem light after 96 hrs by MTT assay relative to control; assay type: functional; conditions: NCI-H209, 96 h, read-out: Survival
# Raji [7] = assay: Survival of human Raji cells at 0.1 uM under deem light after 96 hrs by MTT assay relative to control; assay type: functional; conditions: read-out: Survival
# [8] = Survival of human 2780.9S cells at 0.1 uM under deem light after 96 hrs by MTT assay relative to control; assay type: functional; conditions: read-out: Survival
# SiHa [9] = assay: Cytotoxicity against human SIHA cells under deem light after 96 hrs by MTT assay; assay type: functional, cell-based
# SiHa [10] = assay: Survival of human SIHA cells at 10 uM under deem light after 96 hrs by MTT assay relative to control; assay type: functional; conditions: read-out: Survival
# [11] = Survival of human H209 cells at 0.1 uM under deem light after 96 hrs by MTT assay relative to control; assay type: functional; conditions: NCI-H209, 96 h, read-out: Survival
# [12] = Survival of human 2780.9S cells at 100 uM under deem light after 96 hrs by MTT assay relative to control; assay type: functional; conditions: read-out: Survival
# [13] = Cytotoxicity against human MDA-MB cells under deem light after 96 hrs by MTT assay; assay type: functional, cell-based
# [14] = Survival of human 2780.9S cells at 1 uM under deem light after 96 hrs by MTT assay relative to control; assay type: functional; conditions: read-out: Survival
# K562 [15] = assay: Survival of human K562 cells at 1 uM under deem light after 96 hrs by MTT assay relative to control; assay type: functional; conditions: K562, 96 h, read-out: Survival
# SiHa [16] = assay: Survival of human SIHA cells at 1 uM under deem light after 96 hrs by MTT assay relative to control; assay type: functional; conditions: read-out: Survival
# NCI-H69 [17] = assay: Cytotoxicity against human H69 cells under deem light after 96 hrs by MTT assay; assay type: functional, cell-based; conditions: NCI-H69, 96 h
# K562 [18] = assay: Survival of human K562 cells at 10 uM under deem light after 96 hrs by MTT assay relative to control; assay type: functional; conditions: K562, 96 h, read-out: Survival
# HeLa [19] = assay: Cytotoxicity against human HeLa cells under deem light after 96 hrs by MTT assay; assay type: functional, cell-based
# NCI-H69 [20] = assay: Survival of human H69 cells at 10 uM under deem light after 96 hrs by MTT assay relative to control; assay type: functional; conditions: NCI-H69, 96 h, read-out: Survival
# SiHa [21] = assay: Survival of human SIHA cells at 50 uM under deem light after 96 hrs by MTT assay relative to control; assay type: functional; conditions: read-out: Survival
# [22] = Survival of human MDA-MB cells at 50 uM under deem light after 96 hrs by MTT assay relative to control; assay type: functional; conditions: read-out: Survival
# [23] = Survival of human 2780.9S cells at 10 uM under deem light after 96 hrs by MTT assay relative to control; assay type: functional; conditions: read-out: Survival
# [24] = Survival of human H209 cells at 50 uM under deem light after 96 hrs by MTT assay relative to control; assay type: functional; conditions: NCI-H209, 96 h, read-out: Survival
# K562 [25] = assay: Survival of human K562 cells at 50 uM under deem light after 96 hrs by MTT assay relative to control; assay type: functional; conditions: K562, 96 h, read-out: Survival
# K562 [26] = assay: Survival of human K562 cells at 100 uM under deem light after 96 hrs by MTT assay relative to control; assay type: functional; conditions: K562, 96 h, read-out: Survival
# Raji [27] = assay: Survival of human Raji cells at 10 uM under deem light after 96 hrs by MTT assay relative to control; assay type: functional; conditions: read-out: Survival
# HeLa [28] = assay: Survival of human HeLa cells at 1 uM under deem light after 96 hrs by MTT assay relative to control; assay type: functional; conditions: read-out: Survival
# [29] = Photohemolysis in human RBC assessed as concentration required to 50% hemolysis under light exposure for 10 mins; assay type: ADME, cell-based, Erythrocyte; conditions: human red blood cells, read-out: Activity
# [30] = Survival of human MDA-MB cells at 0.1 uM under deem light after 96 hrs by MTT assay relative to control; assay type: functional; conditions: read-out: Survival
# [31] = Survival of human MDA-MB cells at 10 uM under deem light after 96 hrs by MTT assay relative to control; assay type: functional; conditions: read-out: Survival
# Raji [32] = assay: Cytotoxicity against human Raji cells under deem light after 96 hrs by MTT assay; assay type: functional, cell-based
# K562 [33] = assay: Cytotoxicity against human K562 cells under deem light after 96 hrs by MTT assay; assay type: functional, cell-based; conditions: K562, 96 h
# HeLa [34] = assay: Survival of human HeLa cells at 100 uM under deem light after 96 hrs by MTT assay relative to control; assay type: functional; conditions: read-out: Survival
# Raji [35] = assay: Survival of human Raji cells at 1 uM under deem light after 96 hrs by MTT assay relative to control; assay type: functional; conditions: read-out: Survival
# NCI-H69 [36] = assay: Survival of human H69 cells at 50 uM under deem light after 96 hrs by MTT assay relative to control; assay type: functional; conditions: NCI-H69, 96 h, read-out: Survival
# SiHa [37] = assay: Survival of human SIHA cells at 100 uM under deem light after 96 hrs by MTT assay relative to control; assay type: functional; conditions: read-out: Survival
# [38] = Survival of human 2780.9S cells at 50 uM under deem light after 96 hrs by MTT assay relative to control; assay type: functional; conditions: read-out: Survival
# [39] = Cytotoxicity against human 2780.9S cells under deem light after 96 hrs by MTT assay; assay type: functional, cell-based
# NCI-H69 [40] = assay: Survival of human H69 cells at 100 uM under deem light after 96 hrs by MTT assay relative to control; assay type: functional; conditions: NCI-H69, 96 h, read-out: Survival
# Daudi = assay: Cytotoxicity against human Daudi cells under deem light after 96 hrs by MTT assay; assay type: functional, cell-based
# [41] = Photohemolysis in human RBC at 190 nM under exposure to light for 10 mins; assay type: ADME, cell-based, Erythrocyte; conditions: human red blood cells, read-out: Activity
# K562 [42] = assay: Survival of human K562 cells at 0.1 uM under deem light after 96 hrs by MTT assay relative to control; assay type: functional; conditions: K562, 96 h, read-out: Survival
# [43] = Survival of human MDA-MB cells at 1 uM under deem light after 96 hrs by MTT assay relative to control; assay type: functional; conditions: read-out: Survival
# [44] = Survival of human H209 cells at 10 uM under deem light after 96 hrs by MTT assay relative to control; assay type: functional; conditions: NCI-H209, 96 h, read-out: Survival
# HeLa [45] = assay: Survival of human HeLa cells at 50 uM under deem light after 96 hrs by MTT assay relative to control; assay type: functional; conditions: read-out: Survival
# [46] = Photohemolysis in human RBC at 250 nM in absence of light; assay type: ADME, cell-based, Erythrocyte; conditions: human red blood cells, read-out: Activity
# Raji [47] = assay: Survival of human Raji cells at 50 uM under deem light after 96 hrs by MTT assay relative to control; assay type: functional; conditions: read-out: Survival
# HeLa [48] = assay: Survival of human HeLa cells at 0.1 uM under deem light after 96 hrs by MTT assay relative to control; assay type: functional; conditions: read-out: Survival
# Raji [49] = assay: Survival of human Raji cells at 100 uM under deem light after 96 hrs by MTT assay relative to control; assay type: functional; conditions: read-out: Survival
# HeLa [50] = assay: Survival of human HeLa cells at 10 uM under deem light after 96 hrs by MTT assay relative to control; assay type: functional; conditions: read-out: Survival
smiles,measurement,setting,value
C=Cc1c(C)c2cc3nc(c(CC(=O)OC)c4[nH]c(cc5nc(cc1[nH]2)C(C)=C5CC)c(C)c4C(=O)NCCO)C(CCC(=O)OC)C3C (stereo unspecified) [PHEOPHORBIDE A ETHANOLAMIDE],viability at 0.1 µM,NCI-H69 [1],95.7%
same,viability at 100 µM,[2],1.6%
same,HC50 at 5 min,[3],80 nM
same,viability at 100 µM,[4],5.2%
same,viability at 1 µM,NCI-H69 [5],101%
same,viability at 1 µM,[6],102%
same,viability at 0.1 µM,Raji [7],118%
same,viability at 0.1 µM,[8],98.8%
same,IC50,SiHa [9],35 µM
same,viability at 10 µM,SiHa [10],99.9%
same,viability at 0.1 µM,[11],102%
same,viability at 100 µM,[12],1.7%
same,IC50,[13],35 µM
same,viability at 1 µM,[14],117%
same,viability at 1 µM,K562 [15],113%
same,viability at 1 µM,SiHa [16],97.8%
same,IC50,NCI-H69 [17],55 µM
same,viability at 10 µM,K562 [18],115%
same,IC50,HeLa [19],35 µM
same,viability at 10 µM,NCI-H69 [20],98.4%
same,viability at 50 µM,SiHa [21],1.2%
same,viability at 50 µM,[22],1.6%
same,viability at 10 µM,[23],99%
same,viability at 50 µM,[24],59.4%
same,viability at 50 µM,K562 [25],6.1%
same,viability at 100 µM,K562 [26],2.9%
same,viability at 10 µM,Raji [27],121%
same,viability at 1 µM,HeLa [28],114%
same,HC50 at 10 min,[29],140 nM
same,viability at 0.1 µM,[30],110%
same,viability at 10 µM,[31],107%
same,IC50,Raji [32],35 µM
same,IC50,K562 [33],35 µM
same,viability at 100 µM,HeLa [34],7.8%
same,viability at 1 µM,Raji [35],119%
same,viability at 50 µM,NCI-H69 [36],58.7%
same,viability at 100 µM,SiHa [37],1.1%
same,viability at 50 µM,[38],1.7%
same,IC50,[39],35 µM
same,viability at 100 µM,NCI-H69 [40],14.4%
same,IC50,Daudi,35 µM
same,"hemolysis at 10 min, 0.19 µM",[41],100%
same,viability at 0.1 µM,K562 [42],129%
same,viability at 1 µM,[43],121%
same,viability at 10 µM,[44],106%
same,viability at 50 µM,HeLa [45],6.3%
same,hemolysis at 0.25 µM,[46],17%
same,viability at 50 µM,Raji [47],2.5%
same,viability at 0.1 µM,HeLa [48],126%
same,viability at 100 µM,Raji [49],3.3%
same,viability at 10 µM,HeLa [50],113%
